Results: paper PMC10584170, “Machine learning-based phenotypic imaging to characterise the targetable biology of Plasmodium falciparum male gametocytes for the development of transmission-blocking antimalarials” (PLOS Pathogens, 2023)
Read-outs that look alike come from different tables or passages of the source. Each block holds one compound with its values, some of them ahead of it.

Key:
[1] = system: HepG2 cells; assay: HepG2 cytotoxicity counter-screen; conditions: cytotoxic activity against HepG2 cells
[2] = system: P. falciparum female gametocytes; assay: P. falciparum Dual Gamete Formation Assay (PfDGFA), female readout (Pfs25-positive female gametes); type: cell-based, Plasmodium falciparum NF54; conditions: for HitlevelF: number of replicates with >50% inhibition in the female readout; for Selectivity ratio F: HepG2 Tox50 versus female IC50; for IC50: PfDGFA, 24 h incubation with gametocytes before induction, female gamete readout, read-out: Female IC50
Procedure, shortened: (§1)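 First, day-14 P. falciparum NF54 gametocytes receive compound for 24 h at 37°C in 1% O2/3% CO2. Next, ookinete medium with Cy3 anti-Pfs25 triggers gametogenesis at 28°C and male exflagellation is imaged. Finally, after 24 h in the dark, Cy3-labelled females are imaged.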

[3] = system: P. falciparum male gametocytes; assay: P. falciparum Dual Gamete Formation Assay (PfDGFA), male readout (exflagellation); type: cell-based, Plasmodium falciparum NF54; conditions: for HitlevelM: number of replicates with >50% inhibition in the male readout; for Selectivity Ratio M: HepG2 Tox50 versus male IC50; for IC50: PfDGFA, 24 h incubation with gametocytes before induction, exflagellation readout, read-out: Male IC50
Procedure, shortened: as §1

[4] = 2µM, 24h preincubation with gametocytes prior to induction of gametogenesis, average of replicates
[5] = 2µM, 24h preincubation with gametocytes prior to induction of gametogenesis, replicate R1
[6] = 2µM, 24h preincubation with gametocytes prior to induction of gametogenesis, replicate R3
[7] = 2µM, 24h preincubation with gametocytes prior to induction of gametogenesis, replicate R4
[8] = Plasmodium falciparum, 2µM, 24h preincubation with gametocytes, average of replicates, read-out: Average inhibition female (%)
[9] = Plasmodium falciparum, 2µM, 24h preincubation with gametocytes, replicate R1, read-out: % inhibition female (individual replicates) R1
[10] = Plasmodium falciparum, 2µM, 24h preincubation with gametocytes, replicate R2, read-out: % inhibition female (individual replicates) R2
[11] = Plasmodium falciparum, 2µM, 24h preincubation with gametocytes, replicate R3, read-out: % inhibition female (individual replicates) R3
[12] = Plasmodium falciparum, 2µM, 24h preincubation with gametocytes, replicate R4, read-out: % inhibition female (individual replicates) R4
[13] = Plasmodium falciparum, 2µM, 24h preincubation with gametocytes, average of replicates, read-out: Average inhibition male (%)
[14] = Plasmodium falciparum, 2µM, 24h preincubation with gametocytes, replicate R1, read-out: % inhibition male (individual replicates) R1
[15] = Plasmodium falciparum, 2µM, 24h preincubation with gametocytes, replicate R2, read-out: % inhibition male (individual replicates) R2
[16] = Plasmodium falciparum, 2µM, 24h preincubation with gametocytes, replicate R3, read-out: % inhibition male (individual replicates) R3
[17] = Plasmodium falciparum, 2µM, 24h preincubation with gametocytes, replicate R4, read-out: % inhibition male (individual replicates) R4
[18] = Plasmodium falciparum, PfDGFA at 2µM, 24h preincubation with gametocytes, average of replicates, read-out: Average inhibition female (%)
[19] = Plasmodium falciparum, PfDGFA at 2µM, 24h preincubation with gametocytes, replicate R1, read-out: % inhibition female (individual replicates) R1
[20] = Plasmodium falciparum, PfDGFA at 2µM, 24h preincubation with gametocytes, replicate R2, read-out: % inhibition female (individual replicates) R2
[21] = Plasmodium falciparum, PfDGFA at 2µM, 24h preincubation with gametocytes, replicate R3, read-out: % inhibition female (individual replicates) R3
[22] = Plasmodium falciparum, PfDGFA at 2µM, 24h preincubation with gametocytes, replicate R4, read-out: % inhibition female (individual replicates) R4
[23] = Plasmodium falciparum, PfDGFA at 2µM, 24h preincubation with gametocytes, average of replicates, read-out: Average inhibition male (%)
[24] = Plasmodium falciparum, PfDGFA at 2µM, 24h preincubation with gametocytes, replicate R1, read-out: % inhibition male (individual replicates) R1
[25] = Plasmodium falciparum, PfDGFA at 2µM, 24h preincubation with gametocytes, replicate R2, read-out: % inhibition male (individual replicates) R2
[26] = Plasmodium falciparum, PfDGFA at 2µM, 24h preincubation with gametocytes, replicate R3, read-out: % inhibition male (individual replicates) R3
[27] = Plasmodium falciparum, PfDGFA at 2µM, 24h preincubation with gametocytes, replicate R4, read-out: % inhibition male (individual replicates) R4
[28] = 2µM, 24h preincubation with gametocytes, average of replicates
[29] = 2µM, 24h preincubation with gametocytes, replicate R1
[30] = 2µM, 24h preincubation with gametocytes, replicate R3
[31] = 2µM, 24h preincubation with gametocytes, replicate R4
[32] = PfDGFA at 2µM, 24h preincubation with gametocytes, average of replicates
[33] = PfDGFA at 2µM, 24h preincubation with gametocytes, replicate R1
[34] = PfDGFA at 2µM, 24h preincubation with gametocytes, replicate R3
[35] = PfDGFA at 2µM, 24h preincubation with gametocytes, replicate R4

Structure (SMILES): Cl.c1ccc2c(NCCCCCCCCCNc3c4ccccc4nc4ccccc34)c3ccccc3nc2c1 [TCMDC-124286]
Tox50 [1]: 6.29 µM | Average inhibition female (%) [2, 4]: 43.1% | % inhibition female (individual replicates) R1 [2, 5]: 36.0% | % inhibition female (individual replicates) R3 [2, 6]: 18.9% | % inhibition female (individual replicates) R4 [2, 7]: 71.3% | HitlevelF ([2]; 2µM, 24h preincubation): 1 | Selectivity ratio F [2]: 1.31 | IC50 [2]: 4810 nM | Average inhibition male (%) [3, 4]: 61.5% | % inhibition male (individual replicates) R1 [3, 5]: 79.2% | % inhibition male (individual replicates) R3 [3, 6]: 1.0% | % inhibition male (individual replicates) R4 [3, 7]: 84.9% | HitlevelM ([3]; 2µM, 24h preincubation): 3 | Selectivity Ratio M [3]: 3.22 | IC50 [3]: 1960 nM

IC50 ([2]; Plasmodium falciparum): 310 nM | IC50 ([3]; Plasmodium falciparum): 400 nM
Structure (SMILES): C=CCN(C(=O)c1ccc(Cl)c([N+](=O)[O-])c1)c1nc(-c2ccccc2)cs1 [TCMDC-124436]
Tox50 [1]: 27.57 µM | Selectivity ratio F [2]: 88.48 | inhibition at 2 µM [2, 8]: 53% | inhibition at 2 µM [2, 9]: 34.2% | inhibition at 2 µM [2, 10]: 85.7% | inhibition at 2 µM [2, 11]: 53.1% | inhibition at 2 µM [2, 12]: 38.9% | Selectivity Ratio M [3]: 69.29 | inhibition at 2 µM [3, 13]: 99.6% | inhibition at 2 µM [3, 14]: 99.4% | inhibition at 2 µM [3, 15]: 98.5% | inhibition at 2 µM [3, 16]: 102% | inhibition at 2 µM [3, 17]: 98.2%

IC50 ([2]; Plasmodium falciparum): > 10000 nM | IC50 ([3]; Plasmodium falciparum): 950 nM
Structure (SMILES): Cc1cc(Nc2ccncc2)n2nc(C)c(-c3ccc(Cl)cc3)c2n1 [TCMDC-124478]
Tox50 [1]: 65.53 µM | Selectivity ratio F [2]: 6.55 | inhibition at 2 µM [2, 8]: 2.4% | inhibition at 2 µM [2, 9]: -1.3% | inhibition at 2 µM [2, 10]: -8.5% | inhibition at 2 µM [2, 11]: 24.2% | inhibition at 2 µM [2, 12]: -4.9% | Selectivity Ratio M [3]: 68.63 | inhibition at 2 µM [3, 13]: 95.5% | inhibition at 2 µM [3, 14]: 96.8% | inhibition at 2 µM [3, 15]: 90.6% | inhibition at 2 µM [3, 16]: 96.8% | inhibition at 2 µM [3, 17]: 98%

IC50 ([2]; Plasmodium falciparum): 740 nM | IC50 ([3]; Plasmodium falciparum): 1410 nM
Structure (SMILES): Cc1sc2ncnc(Sc3nnc(N)s3)c2c1C [TCMDC-124542]
Tox50 [1]: 66.05 µM | Selectivity ratio F [2]: 89.35 | inhibition at 2 µM [2, 18]: 86.8% | inhibition at 2 µM [2, 19]: 95.8% | inhibition at 2 µM [2, 20]: 96.9% | inhibition at 2 µM [2, 21]: 102% | inhibition at 2 µM [2, 22]: 52.6% | HitlevelF ([2]; 2µM): 4 | Selectivity Ratio M [3]: 46.96 | inhibition at 2 µM [3, 23]: 69.3% | inhibition at 2 µM [3, 24]: 92.1% | inhibition at 2 µM [3, 25]: 95.8% | inhibition at 2 µM [3, 26]: 87% | inhibition at 2 µM [3, 27]: 2.3% | HitlevelM ([3]; 2µM): 3

IC50 [2]: 1140 nM | IC50 [3]: 2000 nM
Structure (SMILES): O=C(O)C(=O)O.Oc1c(CN2CCC(Cc3ccccc3)CC2)cc(Cl)c2cccnc12 [TCMDC-124594]
Tox50 [1]: 4.17 µM | Average inhibition female (%) [2, 28]: 49.8% | % inhibition female (individual replicates) R1 [2, 29]: 37.8% | % inhibition female (individual replicates) R3 [2, 30]: 58.8% | % inhibition female (individual replicates) R4 [2, 31]: 51.4% | Selectivity ratio F [2]: 3.66 | Average inhibition male (%) [3, 28]: 92.4% | % inhibition male (individual replicates) R1 [3, 29]: 97.5% | % inhibition male (individual replicates) R3 [3, 30]: 93.3% | % inhibition male (individual replicates) R4 [3, 31]: 86.9% | Selectivity Ratio M [3]: 2.09

IC50 ([2]; Plasmodium falciparum): 440 nM | IC50 ([3]; Plasmodium falciparum): 400 nM
Structure (SMILES): O=C(c1ccc([N+](=O)[O-])o1)N1CCC(Cc2ccc(C(F)(F)F)cc2)CC1 [TCMDC-124805]
Tox50 [1]: 28.45 µM | Selectivity ratio F [2]: 64.48 | inhibition at 2 µM [2, 8]: 55.8% | inhibition at 2 µM [2, 9]: 35.5% | inhibition at 2 µM [2, 10]: 62.7% | inhibition at 2 µM [2, 11]: 38.2% | inhibition at 2 µM [2, 12]: 86.7% | Selectivity Ratio M [3]: 70.69 | inhibition at 2 µM [3, 13]: 101% | inhibition at 2 µM [3, 14]: 98.9% | inhibition at 2 µM [3, 15]: 100% | inhibition at 2 µM [3, 16]: 102% | inhibition at 2 µM [3, 17]: 102%

IC50 [2]: 1350 nM | IC50 [3]: 1940 nM
Structure (SMILES): Cc1ccccc1OCC(O)CNC1CCC(NCC(O)COc2ccccc2C)CC1 (stereo not shown) [TCMDC-125142]
Tox50 [1]: 5.33 µM | Selectivity ratio F [2]: 3.94 | Average inhibition female (%) [2, 32]: 34.1% | % inhibition female (individual replicates) R1 [2, 33]: 36.4% | % inhibition female (individual replicates) R3 [2, 34]: 18.2% | % inhibition female (individual replicates) R4 [2, 35]: 27.5% | HitlevelF ([2]; 2µM): 1 | Selectivity Ratio M [3]: 2.74 | Average inhibition male (%) [3, 32]: 76.7% | % inhibition male (individual replicates) R1 [3, 33]: 73.4% | % inhibition male (individual replicates) R3 [3, 34]: 61.7% | % inhibition male (individual replicates) R4 [3, 35]: 90.9% | HitlevelM ([3]; 2µM): 4

IC50 ([2]; Plasmodium falciparum): 250 nM | IC50 ([3]; Plasmodium falciparum): 380 nM
Structure (SMILES): Cc1ccc(-n2c(Sc3ncnc4sccc34)nnc2N2CCCC2)cc1 [TCMDC-125247]
Tox50 [1]: 73.14 µM | Selectivity ratio F [2]: 296.87 | inhibition at 2 µM [2, 18]: 63.5% | inhibition at 2 µM [2, 19]: 56.4% | inhibition at 2 µM [2, 20]: 85.8% | inhibition at 2 µM [2, 21]: 26.4% | inhibition at 2 µM [2, 22]: 85.4% | HitlevelF ([2]; 2µM): 3 | Selectivity Ratio M [3]: 192.28 | inhibition at 2 µM [3, 23]: 74.6% | inhibition at 2 µM [3, 24]: 86.9% | inhibition at 2 µM [3, 25]: 67.1% | inhibition at 2 µM [3, 26]: 80.2% | inhibition at 2 µM [3, 27]: 64.2% | HitlevelM ([3]; 2µM): 4

IC50 [2]: 4430 nM | IC50 [3]: 1310 nM
Structure (SMILES): CCCC(N)C(=O)NC1CCN(c2c(F)c(N)c3c(=O)c(C(=O)O)cn4c3c2Oc2ccccc2-4)C1.Cl (stereo not shown) [TCMDC-125701]
Tox50 [1]: 2.99 µM | Average inhibition female (%) [2, 28]: 53.0% | % inhibition female (individual replicates) R1 [2, 29]: 43.9% | % inhibition female (individual replicates) R3 [2, 30]: 47.1% | % inhibition female (individual replicates) R4 [2, 31]: 70.9% | Selectivity ratio F [2]: 0.68 | Average inhibition male (%) [3, 28]: 89.8% | % inhibition male (individual replicates) R1 [3, 29]: 87.0% | % inhibition male (individual replicates) R3 [3, 30]: 88.1% | % inhibition male (individual replicates) R4 [3, 31]: 95.7% | Selectivity Ratio M [3]: 2.29

IC50 [2]: 480 nM | IC50 [3]: 500 nM
Structure (SMILES): S=C(NN=Cc1ccccn1)NC1CC2C=CC1C2 (stereo not shown) [TCMDC-125752]
Tox50 [1]: 0.14 µM | Average inhibition female (%) [2, 28]: 59.8% | % inhibition female (individual replicates) R1 [2, 29]: 34.4% | % inhibition female (individual replicates) R3 [2, 30]: 45.5% | % inhibition female (individual replicates) R4 [2, 31]: 74.2% | Selectivity ratio F [2]: 0.3 | Average inhibition male (%) [3, 28]: 101.0% | % inhibition male (individual replicates) R1 [3, 29]: 99.9% | % inhibition male (individual replicates) R3 [3, 30]: 101.6% | % inhibition male (individual replicates) R4 [3, 31]: 102.9% | Selectivity Ratio M [3]: 0.29
